According to article PMC3805332, “Synthesis of α-Glucan in Mycobacteria Involves a Hetero-octameric Complex of Trehalose Synthase TreS and Maltokinase Pep2” (ACS Chemical Biology, 2013):

How the values were obtained:
[1] = target: TreS (trehalose synthase) (Mycobacterium tuberculosis, UniProt P9WQ19)
M. smegmatis TreS = target: T1, M. smegmatis TreS (Mycolicibacterium smegmatis, UniProt A0R6E0); assay: hexokinase/pyruvate kinase/lactate dehydrogenase coupled NADH fluorescence; assay type: biochemical; details: hydrolysis to glucose; HEPES-NaOH pH 7.5, 1 mM MgCl2, trehalose 0-25 mM, TreS 0.4 μM
T1 construct: preparation of M. smegmatis TreS not described in main text
T1 sequence (A0R6E0 1-593): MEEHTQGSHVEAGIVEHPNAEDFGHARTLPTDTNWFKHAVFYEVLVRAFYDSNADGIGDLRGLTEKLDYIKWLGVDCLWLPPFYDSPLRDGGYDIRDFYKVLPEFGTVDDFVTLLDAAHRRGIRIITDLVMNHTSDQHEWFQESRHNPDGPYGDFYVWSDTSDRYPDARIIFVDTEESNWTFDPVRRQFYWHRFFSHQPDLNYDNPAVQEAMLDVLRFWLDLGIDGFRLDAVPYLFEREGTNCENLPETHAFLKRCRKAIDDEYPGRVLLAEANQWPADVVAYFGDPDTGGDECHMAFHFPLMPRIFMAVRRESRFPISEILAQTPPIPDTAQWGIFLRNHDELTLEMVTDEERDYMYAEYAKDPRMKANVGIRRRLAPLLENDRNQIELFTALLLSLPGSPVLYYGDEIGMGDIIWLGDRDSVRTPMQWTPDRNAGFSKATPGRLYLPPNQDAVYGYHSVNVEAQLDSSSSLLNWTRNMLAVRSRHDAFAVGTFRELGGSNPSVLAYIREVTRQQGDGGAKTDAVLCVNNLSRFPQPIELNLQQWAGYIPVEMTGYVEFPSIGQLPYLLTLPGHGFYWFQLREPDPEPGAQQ

Chain of TreS (trehalose synthase) (P9WQ19 whole entry): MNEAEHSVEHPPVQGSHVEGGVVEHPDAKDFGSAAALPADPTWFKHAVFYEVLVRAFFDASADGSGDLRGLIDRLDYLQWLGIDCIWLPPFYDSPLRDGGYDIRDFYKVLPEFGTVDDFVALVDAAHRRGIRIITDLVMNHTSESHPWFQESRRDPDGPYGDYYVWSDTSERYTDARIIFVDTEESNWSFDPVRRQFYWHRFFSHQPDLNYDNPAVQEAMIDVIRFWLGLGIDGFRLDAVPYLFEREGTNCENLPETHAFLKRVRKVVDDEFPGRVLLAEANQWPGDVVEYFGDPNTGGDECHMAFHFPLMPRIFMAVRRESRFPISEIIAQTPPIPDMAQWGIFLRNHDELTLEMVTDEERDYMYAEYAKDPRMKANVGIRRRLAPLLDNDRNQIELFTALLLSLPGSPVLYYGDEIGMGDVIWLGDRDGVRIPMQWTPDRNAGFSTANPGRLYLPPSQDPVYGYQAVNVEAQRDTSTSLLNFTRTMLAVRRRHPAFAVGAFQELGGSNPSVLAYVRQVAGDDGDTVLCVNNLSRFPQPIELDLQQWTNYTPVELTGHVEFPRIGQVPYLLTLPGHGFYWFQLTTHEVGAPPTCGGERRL

| SMILES | end-point thin layer chromatography [1] | hexokinase/pyruvate kinase/lactate dehydrogenase coupled NADH fluorescence (M. smegmatis TreS) |
| --- | --- | --- |
| OC[C@H]1O[C@H](O[C@H]2[C@H](O)[C@@H](O)C(O)O[C@@H]2CO)[C@H](O)[C@@H](O)[C@@H]1O (stereo partly drawn) [maltose] | Incubation of TreS with trehalose or maltose interconverted the substrates | – |
| OC[C@H]1O[C@H](O[C@H]2O[C@H](CO)[C@@H](O)[C@H](O)[C@H]2O)[C@H](O)[C@@H](O)[C@@H]1O [trehalose] | Incubation of TreS with trehalose or maltose interconverted the substrates | we monitored M. smegmatis TreS-catalyzed conversion of trehalose to glucose in an enzyme-coupled continuous assay |
